Assay results taken from patent publication US9533977B2, “Oxazolidinone derivative as CETP inhibitor, its preparation method, and pharmaceutical composition comprising the same” (DONG-A ST CO., LTD., priority 2013, dated 2017).

Molecular target: T1, CETP (Homo sapiens, UniProt P11597)
T1 construct: from tissue; host or cells: human plasma from healthy men
T1 sequence (P11597 18-493): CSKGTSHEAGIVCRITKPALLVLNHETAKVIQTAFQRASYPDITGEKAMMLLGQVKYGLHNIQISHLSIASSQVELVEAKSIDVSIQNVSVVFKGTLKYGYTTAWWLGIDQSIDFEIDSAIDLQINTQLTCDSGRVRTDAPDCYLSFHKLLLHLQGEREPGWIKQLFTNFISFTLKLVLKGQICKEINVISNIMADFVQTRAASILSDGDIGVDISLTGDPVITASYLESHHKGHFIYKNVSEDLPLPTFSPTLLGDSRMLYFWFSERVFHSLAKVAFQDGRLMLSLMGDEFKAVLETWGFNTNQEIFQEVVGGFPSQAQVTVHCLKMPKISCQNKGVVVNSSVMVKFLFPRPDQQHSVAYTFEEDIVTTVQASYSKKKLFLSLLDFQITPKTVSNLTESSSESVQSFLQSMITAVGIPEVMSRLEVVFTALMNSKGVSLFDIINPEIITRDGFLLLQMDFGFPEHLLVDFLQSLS
Assay: Inhibitory activity against CETP in human plasma (Roar CETP activity kit, fluorescence)
Format: biochemical
Conditions: plasma from healthy men diluted 1:10 in assay buffer, 37° C., 3 hrs, fluorescence 465/535 nm; read-out: IC50, Inhibition of CETP Activity in Human Plasma
Outline: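 Healthy male human plasma, diluted 1:10, incubated 3 hrs at 37° C with donor/acceptor fluorescent substrates and compound (0.01–10000 nM, DMSO). Fluorescence at ex 465/em 535 nm, background-corrected against no-plasma and no-compound wells; IC50 from sigmoidal fit.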

| Compound | IC50 [µM] |
| --- | --- |
| C[C@H]1[C@@H](c2cc(C(F)(F)F)cc(C(F)(F)F)c2)OC(=O)N1Cc1cc(C(F)(F)F)cnc1N(C)C1CCCOCC1 (stereo partly drawn) [Example 20, (4S,5R)-5-[3,5-bis(trifluoromethyl)phenyl]-4-methyl-3-({[2-(methyl)(oxepen-4-yl)amino]-5-(trifluoromethyl)pyridin-3-yl}methyl)-oxazolidin-2-one] | 0.059 |
| (4S,5R)-5-[3,5-bis(trifluoromethyl)phenyl]-4-methyl-3-({[2-(ethyl)(cyclohexyl)amino]-5-(2,4-dimethyl-thiazol-5-yl)pyridin-3-yl}methyl)-oxazolidin-2-one [Example 84] | 0.0297 |
| CCN(c1ncc(C(F)(F)F)cc1CN1C(=O)O[C@H](c2cc(C(F)(F)F)cc(C(F)(F)F)c2)[C@@H]1C)C1CCOCC1 [Example 7, (4S,5R)-5-[3,5-bis(trifluoromethyl)phenyl]-4-methyl-3-({[2-(ethyl)(tetrahydro-2H-pyran-4-yl)amino]-5-(trifluoromethyl)pyridin-3-yl}methyl)-oxazolidin-2-one] | 0.0063 |
| CCN(c1ncc(F)cc1CN1C(=O)O[C@H](c2cc(C(F)(F)F)cc(C(F)(F)F)c2)[C@@H]1C)C1CCOCC1 [Example 16, (4S,5R)-5-[3,5-Bis(trifluoromethyl)phenyl]-4-methyl-3-({2-[ethyl(tetrahydro-2H-pyran-4-yl)amino]-5-fluoropyridin-3-yl}methyl)-oxazolidin-2-one] | 0.075 |
| CCN(C[C@H]1CC[C@H](CC(=O)O)CC1)c1ncc(-c2cncc(F)c2)nc1CN1C(=O)OC(c2cc(C(F)(F)F)cc(C(F)(F)F)c2)[C@@H]1C (stereo partly shown) [Example 120] | 0.0248 |
| CCCCN(c1ncc(C(F)(F)F)cc1CN1C(=O)O[C@H](c2cc(C(F)(F)F)cc(C(F)(F)F)c2)[C@@H]1C)C1CCOCC1 [Example 9, (4S,5R)-5-[3,5-bis(trifluoromethyl)phenyl]-4-methyl-3-({[2-(butyl)(tetrahydro-2H-pyran-4-yl)amino]-5-(trifluoromethyl)pyridin-3-yl}methyl)-oxazolidin-2-one] | 0.068 |
| CCN(c1ncc(-c2c(C)n[nH]c2C)cc1CN1C(=O)O[C@H](c2cc(C(F)(F)F)cc(C(F)(F)F)c2)[C@@H]1C)C1CCCCC1 [Example 65, (4S,5R)-5-[3,5-bis(trifluoromethyl)phenyl]-4-methyl-3-({[2-(ethyl)(cyclohexyl-4-yl)amino]-5-(3,5-dimethyl-1H-pyrazol-4-yl)pyridin-3-yl}methyl)-oxazolidin-2-one] | 0.224 |
| CCN(C[C@H]1CC[C@H](CC(=O)O)CC1)c1ncc(-c2ccc(C#N)cc2)nc1CN1C(=O)OC(c2cc(C(F)(F)F)cc(C(F)(F)F)c2)[C@@H]1C (stereo partly shown) [Example 117] | 0.0117 |
| C[C@H]1[C@@H](c2cc(C(F)(F)F)cc(C(F)(F)F)c2)OC(=O)N1Cc1cc(C(F)(F)F)cnc1N(CC(=O)OC(C)(C)C)C1CCOCC1 [Example 17, t-butyl 2-([3-({(4S,5R)-5-[3,5-bis(trifluoromethyl)phenyl]-4-methyl-2-oxo-oxazolidin-3-yl}methyl)-5-(trifluoromethyl)pyridin-2-yl]-(tetrahydro-2H-pyran-4-yl)amino)-acetate] | 0.379 |
| CCN(c1ncc(N2CCC2)cc1CN1C(=O)O[C@H](c2cc(C(F)(F)F)cc(C(F)(F)F)c2)[C@@H]1C)C1CCOCC1 [Example 43, (4S,5R)-5-[3,5-bis(trifluoromethyl)phenyl]-4-methyl-3-({[2-(ethyl)(tetrahydro-2H-pyran-4-yl)amino]-5-(azetidin-1-yl)pyridin-3-yl}methyl)-oxazolidin-2-one] | 0.0079 |

More lines, now with the values ahead:

| IC50 [µM] | Compound |
| --- | --- |
| 0.0399 | CCN(c1ncc(C(F)(F)F)cc1CN1C(=O)O[C@H](c2cc(C(F)(F)F)cc(C(F)(F)F)c2)[C@@H]1C)C1CCN(C(C)=O)CC1 [Example 33, (4S,5R)-5-[3,5-bis(trifluoromethyl)phenyl]-4-methyl-3-({[2-(ethyl)(1-acetylpiperidin-4-yl)amino]-5-(trifluoromethyl)pyridin-3-yl}methyl)-oxazolidin-2-one] |
| 0.108 | CCN(c1ncc(C(F)(F)F)cc1CN1C(=O)O[C@H](c2cc(C(F)(F)F)cc(C(F)(F)F)c2)[C@@H]1C)C1CCSCC1 [Example 25, (4S,5R)-5-[3,5-bis(trifluoromethyl)phenyl]-4-methyl-3-({[2-(ethyl)(tetrahydro-2H-thiopyran-4-yl)amino]-5-(trifluoromethyl)pyridin-3-yl}methyl)-oxazolidin-2-one] |
| 0.045 | CCN(c1ncc(-c2cccc(F)c2)cc1CN1C(=O)O[C@H](c2cc(C(F)(F)F)cc(C(F)(F)F)c2)[C@@H]1C)C1CCOCC1 [Example 47, (4S,5R)-5-[3,5-bis(trifluoromethyl)phenyl]-4-methyl-3-({[2-(ethyl)(tetrahydro-2H-pyran-4-yl)amino]-5-(3-fluorophenyl)pyridin-3-yl}methyl)-oxazolidin-2-one] |
| 0.00719 | CCCN(C[C@H]1CC[C@H](CC(=O)O)CC1)c1ncc(-c2c(C)noc2C)nc1CN1C(=O)OC(c2cc(C(F)(F)F)cc(C(F)(F)F)c2)[C@@H]1C (stereo partly shown) [Example 123] |
| 0.0319 | CCN(c1ncc(-c2c(N)noc2C)cc1CN1C(=O)O[C@H](c2cc(C(F)(F)F)cc(C(F)(F)F)c2)[C@@H]1C)C1CCCCC1 [Example 85, (4S,5R)-5-[3,5-bis(trifluoromethyl)phenyl]-4-methyl-3-({[2-(ethyl)(cyclohexyl)amino]-5-(3-amino-5-methyl-isoxazol-4-yl)pyridin-3-yl}methyl)-oxazolidin-2-one] |
| 0.014 | CCCN(c1ncc(C(F)(F)F)cc1CN1C(=O)O[C@H](c2cc(C(F)(F)F)cc(C(F)(F)F)c2)[C@@H]1C)C1CCOCC1 [Example 8, (4S,5R)-5-[3,5-bis(trifluoromethyl)phenyl]-4-methyl-3-({[2-(propyl)(tetrahydro-2H-pyran-4-yl)amino]-5-(trifluoromethyl)pyridin-3-yl}methyl)-oxazolidin-2-one] |
| 0.00468 | CCN(C[C@H]1CC[C@H](CC(=O)O)CC1)c1ncc(C2CCC2)nc1CN1C(=O)OC(c2cc(C(F)(F)F)cc(C(F)(F)F)c2)[C@@H]1C (stereo partly shown) [Example 122] |
| 0.22 | CCOC(=O)N1CCC(N(CC)c2ncc(C(F)(F)F)cc2CN2C(=O)O[C@H](c3cc(C(F)(F)F)cc(C(F)(F)F)c3)[C@@H]2C)CC1 [Example 36, ethyl 4-{[3-({(4S,5R)-5-[3,5-bis(trifluoromethyl)phenyl]-4-methyl-2-oxo-oxazolidin-3-yl}methyl)-5-(trifluoromethyl)pyridin-2-yl](ethyl)amino}piperidine-1-carboxylate] |
| 0.00886 | CCN(C[C@H]1CC[C@H](CCO)CC1)c1ncc(-c2c(C)noc2C)nc1CN1C(=O)OC(c2cc(C(F)(F)F)cc(C(F)(F)F)c2)[C@@H]1C (stereo partly shown) [Example 130] |
| 0.0267 | CCN(c1ncc(N2CCC(F)(F)C2)cc1CN1C(=O)O[C@H](c2cc(C(F)(F)F)cc(C(F)(F)F)c2)[C@@H]1C)C1CCCCC1 [Example 91, (4S,5R)-5-[3,5-bis(trifluoromethyl)phenyl]-4-methyl-3-({[2-(ethyl)(cyclohexyl)amino]-5-(3,3-difluoro-pyrrolidin-1-yl)pyridin-3-yl}methyl)-oxazolidin-2-one] |
| 0.00261 | Cc1noc(C)c1-c1cnc(N2CCCCC2)c(CN2C(=O)O[C@@H](c3cc(C(F)(F)F)cc(C(F)(F)F)c3)[C@@H]2C)n1 [Example 98, (4S,5S)-5-[3,5-bis(trifluoromethyl)phenyl]-3-{[6-(3,5-dimethylisoxazol-4-yl)-3-(piperidin-1-yl)pyrazin-2-yl)methyl}-4-methyloxazolidin-2-one] |
| 0.037 | CCN(CC1CCC(CC(=O)O)CC1)c1ncc(-c2cc(C)nn2C)nc1CN1C(=O)OC(c2cc(C(F)(F)F)cc(C(F)(F)F)c2)C1C [Example 107, trans-4-({[3-({(4S,5S)-5-[3,5-bis(trifluoromethyl)phenyl]-4-methyl-2-oxazolidin-3-yl}methyl)-5-(1,3-dimethyl-1H-pyrazol-5-yl)pyrazin-2-yl]{[N-(ethyl)aminomethyl]cyclohexyl)}acetic acid] |
| 0.0463 | CCN(c1ncc(-c2nnnn2C)cc1CN1C(=O)O[C@H](c2cc(C(F)(F)F)cc(C(F)(F)F)c2)[C@@H]1C)C1CCCCC1 [Example 66, (4S,5R)-5-[3,5-bis(trifluoromethyl)phenyl]-4-methyl-3-({[2-(ethyl)(cyclohexyl)amino]-5-(1-methyl-1H-tetrazol-5-yl)pyridin-3-yl}methyl)-oxazolidin-2-one] |
| 0.498 | CCN(c1ncc(C(F)(F)F)cc1CN1C(=O)O[C@H](c2cc(C(F)(F)F)cc(C(F)(F)F)c2)[C@@H]1C)C1CCN(C(=O)N(C)C)CC1 [Example 37, methyl 4-{[3-({(4S,5R)-5-[3,5-bis(trifluoromethyl)phenyl]-4-methyl-2-oxo-oxazolidin-3-yl}methyl)-5-(trifluoromethyl)pyridin-2-yl](ethyl)amino}-N,N-dimethylpiperidine-1-carboxamide] |
| 0.0103 | CCN(C[C@H]1CC[C@H](CC(=O)O)CC1)c1ncc(-c2cccs2)nc1CN1C(=O)OC(c2cc(C(F)(F)F)cc(C(F)(F)F)c2)[C@@H]1C (stereo partly shown) [Example 114] |
